From patent US12162894B2, “Structural analog of Cyclotheonellazole A, and synthetic method therefor and application method thereof” (The Second People's Hospital of Shenzhen (Shenzhen …, priority 2022, dated 2024)

Target: T1, Neutrophil Elastase (NE) (Homo sapiens, UniProt P08246)
T1 construct: purchased Abcam ab118971
T1 sequence (P08246 30-267): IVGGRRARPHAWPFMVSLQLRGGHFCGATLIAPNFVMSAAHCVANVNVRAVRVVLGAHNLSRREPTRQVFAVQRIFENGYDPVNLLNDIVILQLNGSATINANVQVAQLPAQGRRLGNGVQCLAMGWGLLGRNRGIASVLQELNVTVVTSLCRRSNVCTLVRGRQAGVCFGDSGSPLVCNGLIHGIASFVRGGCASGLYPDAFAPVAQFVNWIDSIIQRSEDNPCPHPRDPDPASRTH
Assay: Inhibition of neutrophil elastase (NE), fluorescence kit (Abcam ab118971)
Type: biochemical
Conditions: 5 min pre-incubation at 37° C.; Ex/Em=400/505 nm; slope of fluorescence; read-out: IC50, enzyme activity of the NE
Method: An Inhabitation Effect of the TM to Neutrophil Elastase (NE)
• 1. Experimental materials include a NE protease detection kit (ab118971) of an Abcam company and TM. • 2. Experimental methods are as follows. In a black 96-well plate, a blank well group, a negative control well group and a sample well group are set, and a reaction system is 100 μL. The blank well group is added with 75 μL of buffer, the negative control well group is added with 50 μL of NE protease and 25 μL of buffer, the sample well group is added with 50 μL of NE protease and 25 μL of TM solution (respectively with concentrations of 0.00001 μM, 0.0001 μM, 0.001 μM, 0.003 μM, 0.01 μM 0.1 μM, 1 μM, and 10 μM), and the three groups are incubated at a temperature of 37° C. for 5 min. Each well is added with 25 μL of substrate, after mixing evenly, fluorescence value of each well is immediately detected at Ex/Em=400/505 nm, and is detected every 20 seconds, and a dynamic process within a range of 0-40 min is observed. Two different time points (T1 and T2) are selected within a linear range of the dynamic process to obtain fluorescence values (RFUT1 and RFUT2) corresponding to the time points, a slope of the fluorescence values is calculated, and the slope can be regarded as an enzyme activity of each well. […] A half inhibitory concentration (IC50) is calculated through the Origin 2021 software. • 3.

- IC50: 1.27 nM
SMILES: CCC[C@@H]1NC(=O)[C@@H](NC=O)CNC(=O)[C@H](CS(=O)(=O)O)NC(=O)/C=C/c2csc(n2)[C@H](Cc2ccc(O)cc2)NC(=O)C(=O)[C@H]([C@@H](C)CC)NC1=O [TM]
